Article PMC9718795, “Caffeic acid N-[3,5-bis(trifluoromethyl)phenyl] amide as a non-steroidal inhibitor for steroid 5α-reductase type 1 using a human keratinocyte cell-based assay and molecular dynamics” (Scientific Reports, 2022)

How the values were obtained:
[1] = In vitro cytotoxic MTT assay against HaCaT cells; format: cell-based, human; conditions: human, HaCaT cells (human keratinocytes), read-out: Cytotoxicity IC50 against HaCaTs
Description: (§1) The cytotoxicity of caffeic acid and its amide derivatives were evaluated with two cell lines, human keratinocyte (HaCaT) and DP cells, using the common cell viability assay with MTT. HaCaT and DP cells were seeded at 1 × 10^4 cell/well in 96-well plates in a complete DMEM medium, incubated overnight, and treated with test compounds at 0–50 µM for 24 h. The stock solutions of all the test compounds were prepared in DMSO. Each compound was serially diluted in DMEM to achieve concentrations at 0.5–50 µM; DMEM was used as the negative control. After 24 h of treatment, the culture medium was removed, and cell viability was determined by adding 100 µL of 0.5 mg/mL MTT at 37 °C in darkness for 3 h. After removing the MTT solution, 100 µL of DMSO was added to each well to dissolve the purple formazan crystals. The absorbance was measured at 570 nm using a microplate reader, and the IC50 value was calculated. Each experiment was performed in triplicates.

[2] = target: T1, HaCaTs-produced SRD5A1 (Homo sapiens, UniProt P18405); test: Whole-cell-based kinetic study of HaCaT-produced SRD5A1 with HPTLC; parameters: Apparent Vmax: unit not given here; conditions: 12 h
T1 construct: HaCaTs-produced SRD5A1 smoothly converted testosterone to DHT; endogenous in cells; host or cells: HaCaT human keratinocytes
T1 sequence (P18405 1-259): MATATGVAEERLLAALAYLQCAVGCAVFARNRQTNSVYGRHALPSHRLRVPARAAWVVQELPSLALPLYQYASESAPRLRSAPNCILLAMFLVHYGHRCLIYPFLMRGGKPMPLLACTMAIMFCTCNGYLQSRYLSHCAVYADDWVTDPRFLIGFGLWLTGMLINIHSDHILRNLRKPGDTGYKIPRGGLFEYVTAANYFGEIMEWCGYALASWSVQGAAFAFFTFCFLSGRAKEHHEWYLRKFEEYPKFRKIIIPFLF
Description: The in vitro whole HaCaT cell-based assay for the kinetic inhibition against SRD5A1 included culturing the cells for 48 h, treating the cells with testosterone and compound 4 for 12 h and evaluating the % intensity of DHT and cell viability using HPTLC analysis and MTT assay, respectively. The HaCaT cells were seeded and incubated as same as the method shown in 3.8. For the evaluation of dose-dependent activity of testosterone, the different concentration of testosterone (0 − 50 μM) and DMEM with 0.1% DMSO were added. […] DMEM with 0.1% DMSO was used as negative control. Then, the cells were incubated for 12 h. The collection of cell culture medium, extraction process, sample preparation and HPTLC detection were prepared by the method mentioned above (3.8). The obtaining chromatogram was visualized by CAMAG HPTLC Software vision CATS and analyzed by Image J software. The percentage of DHT intensity was calculated based on the intensity of DHT normalized by the standard of DHT at 100 μM. At the same time, the cell viability of the treated cells was assessed by the MTT assay. Each experiment was repeated in triplicate.

[3] = tested on: HaCaT cells; test: Cell viability (MTT) run in parallel with the HaCaT-based SRD5A1 inhibitory assay; parameters: species or system human; conditions: HaCaT
[4] = as above; parameters: species or system human; conditions: human, HaCaT cells, HaCaT, 24 h
[5] = tested on: SRD5A1 mRNA; test: SRD5A1 mRNA level by RT-qPCR in HaCaT cells; format: cell-based, human; conditions: 0.5, 1 and 2.5 µM; 12 h and 24 h
Description: HaCaT cells (2 × 10^5 cells/well in 6 well-plates) were treated with compound 4 (0, 0.5, 1 and 2.5 µM) for 12 and 24 h. Then, total RNA was extracted by using Purelink RNA mini purification kit. The isolated RNA was purified by DNase I and further used as a template for synthesis of cDNA using RevertAid First Stand cDNA Synthesis Kit. Quantitative real-time PCR (RT-qPCR) was performed with a C100 Thermal Cycler (Bio-Rad CFX384 real-time pcr system) using Luna Universal qPCR Master Mix (M3003). Specific forward and reverse primers of the interested gene was indicated as following.
The reactions were incubated for 39 cycles of 95 °C for 5 s, 60 °C for 30 s and 65 °C for 5 s. The expression of target mRNA was determined as the relative comparison via the ΔCt method. The threshold (Ct) of target genes were normalized with GAPDH (Ct) values.

[6] = tested on: dermal papilla (DP) cells; test: In vitro cytotoxic MTT assay against DP cells; format: cell-based, human; conditions: 0.5–50 µM, 24 h
Description: as §1

Question: Which results are given for `O=C(C=Cc1ccc(O)c(O)c1)Nc1cc(C(F)(F)F)cc(C(F)(F)F)c1` [Compound 4, 3-(3,4-dihydroxyphenyl)-N-[3,5-bis (trifluoromethyl)phenyl]-2-propenamide]?
Answer: IC50 at 24 h [1]: 30 ± 8.69 µM; Apparent Vmax ([2]; compound 4 0.2 µM): 96.08; Apparent Vmax ([2]; compound 4 0.5 µM): 76.27; Apparent Vmax ([2]; compound 4 1.0 µM): 74.06; Apparent Vmax ([2]; compound 4 2.5 µM): 69.85; Ki ([2]; mixed-model inhibition analysis, non-linear): 2.38 µM; % DHT intensity ± S.D. ([2]; testosterone 1 µM, compound 4 0.2 µM): 0.83 ± 0.219%; % DHT intensity ± S.D. ([2]; testosterone 1 µM, compound 4 0.5 µM): 0.70 ± 0.16%; % DHT intensity ± S.D. ([2]; testosterone 1 µM, compound 4 1.0 µM): 0.12 ± 0.01%; % DHT intensity ± S.D. ([2]; testosterone 1 µM, compound 4 2.5 µM): 0.13 ± 0.03%; % DHT intensity ± S.D. ([2]; testosterone 5 µM, compound 4 0.2 µM): 29.00 ± 1.829%; % DHT intensity ± S.D. ([2]; testosterone 5 µM, compound 4 0.5 µM): 44.57 ± 9.66%; % DHT intensity ± S.D. ([2]; testosterone 5 µM, compound 4 1.0 µM): 34.49 ± 3.82%; % DHT intensity ± S.D. ([2]; testosterone 5 µM, compound 4 2.5 µM): 0.31 ± 0.04%; % DHT intensity ± S.D. ([2]; testosterone 10 µM, compound 4 0.2 µM): 48.11 ± 5.339%; % DHT intensity ± S.D. ([2]; testosterone 10 µM, compound 4 0.5 µM): 23.04 ± 2.83%; % DHT intensity ± S.D. ([2]; testosterone 10 µM, compound 4 1.0 µM): 27.21 ± 2.98%; % DHT intensity ± S.D. ([2]; testosterone 10 µM, compound 4 2.5 µM): 30.48 ± 5.08%; % DHT intensity ± S.D. ([2]; testosterone 25 µM, compound 4 0.2 µM): 86.19 ± 4.08%; % DHT intensity ± S.D. ([2]; testosterone 25 µM, compound 4 0.5 µM): 71.91 ± 2.00%; % DHT intensity ± S.D. ([2]; testosterone 25 µM, compound 4 1.0 µM): 68.49 ± 0.95%; % DHT intensity ± S.D. ([2]; testosterone 25 µM, compound 4 2.5 µM): 46.20 ± 0.91%; % DHT intensity ± S.D. ([2]; testosterone 50 µM, compound 4 0.2 µM): 90.49 ±10.32%; % DHT intensity ± S.D. ([2]; testosterone 50 µM, compound 4 0.5 µM): 72.72 ± 12.38%; % DHT intensity ± S.D. ([2]; testosterone 50 µM, compound 4 1.0 µM): 65.61 ± 2.06%; % DHT intensity ± S.D. ([2]; testosterone 50 µM, compound 4 2.5 µM): 55.01 ± 2.40%; Mode of SRD5A1 inhibition ([2]; whole-cell): mixed inhibition; Cytotoxicity between control and treatment groups ([3]; 0.2, 0.5, 1 and 2.5 µM): no significant cytotoxicity; % Cell viability ± SD ([3]; compound 1.0 µM, 24 h, 1 µM): 87.85 ± 1.13%; viability at 24 h, 1 µM ([4]; compound 1.0 µM, read-out: % Cell viability ± SD): 88%; viability at 24 h, 5 µM ([4]; compound 5 µM, read-out: Viability of treated cells): < 80%; Effect on mRNA expression of SRD5A1 [5]: did not affect; Toxicity against DP cells [6]: no toxicity
